Our source for the Ki values is BindingDB's records for doi:10.3109/14756366.2011.651465 (Dumlupinar University, 2013).

In general, Ki refers to a dissociation constant, usually derived from enzyme kinetics or from competition with a known ligand. The low end stands for a stronger hold on the target, the high end for a looser hold on the target.

The target in one assay is Carbonic anhydrase 2 (Homo sapiens, UniProt P00918). The assay can be described thus: CA Activity Assay. Conditions: pH 7.4; 25 °C. On the procedure: (§1) CA activity was assayed in inhibition studies by following the change in absorbance at 348 nm of 4-nitrophenylacetate (NPA) to 4-nitrophenylate ion over a period of 3 min at 25°C using a spectrophotometer according to the method described by Verpoorte et al. [Verpoorte et al., J. Biol. Chem., 242:4221-4229] The enzymatic reaction, in a total volume of 1 mL, contained 50 mM Tris-SO4 buffer (pH = 7.4), 3 mM 4-nitrophenylacetate and enzyme solution. A reference measurement was done by using the same cuvette without enzyme solution. The inhibitory effects of some synthesized sulfonamide derivatives on CA enzyme activity purified from human erythrocyte were tested on three samples at each concentration used.

A further assay concerns the target Carbonic anhydrase 1 (Homo sapiens, UniProt P00915). The assay can be described thus: CA Activity Assay. Conditions: pH 7.4; 25 °C. Here is the method: as §1

Chain of Carbonic anhydrase 1 (P00915 whole entry): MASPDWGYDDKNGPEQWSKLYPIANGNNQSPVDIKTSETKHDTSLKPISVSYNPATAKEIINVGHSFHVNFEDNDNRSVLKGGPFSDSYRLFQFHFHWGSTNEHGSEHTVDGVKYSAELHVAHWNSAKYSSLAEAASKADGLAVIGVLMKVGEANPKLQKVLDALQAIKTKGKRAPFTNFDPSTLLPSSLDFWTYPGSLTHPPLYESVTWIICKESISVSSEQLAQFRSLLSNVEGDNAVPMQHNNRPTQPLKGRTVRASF

With `Nc1cccc(-n2nc(C(=O)Nc3ccc(S(N)(=O)=O)cc3)c(C(=O)c3ccccc3)c2-c2ccccc2)c1` [1-(3-aminophenyl)-4-benzoyl-5-phenyl-N-(4-sulfamoylphenyl)-1H-pyrazole-3-carboxamide (3)], the Ki at Carbonic anhydrase 2 was found to be 0.055 µM; on Carbonic anhydrase 1 it was 0.108 µM.

Regarding `[N-]=[N+]=Nc1cccc(-n2nc(C(=O)Nc3ccc(S(N)(=O)=O)cc3)c(C(=O)c3ccccc3)c2-c2ccccc2)c1` [1-(3-azidophenyl)-4-benzoyl-5-phenyl-N-(4-sulfamoylphenyl)-1H-pyrazole-3-carboxamide (9)], the Ki at Carbonic anhydrase 2 stood at 0.064 µM; on Carbonic anhydrase 1 it was 0.129 µM.

As for `NS(=O)(=O)c1ccc(NC(=O)c2nn(-c3cccc(NN=C(C(=O)c4ccccc4)C(=O)c4ccccc4)c3)c(-c3ccccc3)c2C(=O)c2ccccc2)cc1` [4-benzoyl-1-(3-(2-(1,3-dioxo-1,3-diphenylpropan-2-ylidene)hydrazinyl)phenyl)-5-phenyl-N-(4-sulfamoylphenyl)-1H-pyrazole-3-carboxamide (6)], the Ki on Carbonic anhydrase 2 was 1.94 µM; on Carbonic anhydrase 1 it was 4.1 µM.

Take `CC(=O)C(=NNc1cccc(-n2nc(C(=O)Nc3ccc(S(N)(=O)=O)cc3)c(C(=O)c3ccccc3)c2-c2ccccc2)c1)C(C)=O` [4-benzoyl-1-(3-((2-hydroxy-4-oxopent-2-en-3-yl)diazenyl)phenyl)-5-phenyl-N-(4-sulfamoylphenyl)-1H-pyrazole-3-carboxamide (5)]: the values for the Ki on Carbonic anhydrase 2 and at Carbonic anhydrase 1 were 0.595 µM and 0.16 µM, respectively.

Consider `CC(=O)/C(=N\Nc1cccc(-n2nc(C(=O)Nc3ccc(S(N)(=O)=O)cc3)c(C(=O)c3ccccc3)c2-c2ccccc2)c1)C(=O)c1ccccc1` [4-benzoyl-1-(3-((3-hydroxy-1-oxo-1-phenylbut-2-en-2-yl)diazenyl)phenyl)-5-phenyl-N-(4-sulfamoylphenyl)-1Hpyrazole-3-carboxamide (7)], for which the values for the Ki on Carbonic anhydrase 2 and on Carbonic anhydrase 1 were 0.166 µM and 0.521 µM, respectively.

Regarding `NS(=O)(=O)c1ccc(NC(=O)c2nn(-c3cccc([N+](=O)[O-])c3)c(-c3ccccc3)c2C(=O)c2ccccc2)cc1` [4-benzoyl-1-(3-nitrophenyl)-5-phenyl-N-(4-sulfamoylphenyl)-1H-pyrazole-3-carboxamide (2)], the figures for the Ki at Carbonic anhydrase 2 and at Carbonic anhydrase 1 were 0.337 µM and 0.215 µM, respectively.

With `CCOC(=O)/C(=N/Nc1cccc(-n2nc(C(=O)Nc3ccc(S(N)(=O)=O)cc3)c(C(=O)c3ccccc3)c2-c2ccccc2)c1)C(=O)c1ccccc1` [Ethyl-2-(2-(3-(4-benzoyl-5-phenyl-3-(4-sulfamoylphenylcarbamoyl)-1H-pyrazol-1-(phenyl)hydrazono)-3-oxo-3-phenylpropanoate (8)], the results for the Ki at Carbonic anhydrase 2 and on Carbonic anhydrase 1 were 8.24 µM and 2.9 µM, respectively.
